# Key:
# [1] = XRPD polymorphic form before and after Gamma irradiation; type: physicochemical
# Description: (§1) The solid-state characterization of the spray dried amorphous ivermectin solid dispersions of Examples 1-3 prepared by the traditional spray drying process were evaluated by Scanning Electronic Microscopy (SEM) (Phenom ProX SEM), Differential Scanning calorimetry (DSC) (TA Instruments), Laser diffraction (Sympatec HELOS/RODOS, Germany) employing the rotary feeder and R1 lens, X-Ray Powder Diffraction (Pan Analytical), Raman Spectroscopy (Witec) and High Performance Liquid Chromatography (Waters). FIG. 1 is a scanning electron microscopic picture of the amorphous solid dispersion of Example 1 (ivermectin and PVP-VA-64). FIG. 2 is a scanning electron microscopic image of the amorphous solid dispersion of Example 2 (ivermectin and PVP K-30). FIG. 3 is a scanning electron microscopic picture of the amorphous solid dispersion of Example 3 (ivermectin and HPMC E4M). FIGS. 1-3 are at a magnification of 6000×. FIGS. 4-6 are thermograms of the ASD of Examples 1-3 obtained by differential scanning calorimetry. FIGS. 7-9 are diffractograms of the ASD of Examples 1-3. […] FIGS. 10 and 11 are Raman spectrums for ivermectin, the polymer PVP VA-64 and mixtures of the two (FIG. 10) and ivermectin, the polymer PVP K-30 and mixtures of the two (FIG. 11). […] FIG. 10 includes ratios of ivermectin to PVP VA-64 at ratios of 1:1 and 1:2 and FIG. 11 includes ratios of ivermectin to PVP K-30 at ratios of 1:1, 1:3, and 2:3.
# The inventors have also determined that use of the polymer in the amorphous solid dispersion of ivermectin protects the ivermectin from degradation that occurs during Gamma irradiation, heat sterilization or e-beam sterilization. Ophthalmic formulations must be sterilized and Gamma irradiation, heat sterilization or e-beam sterilization are suitable methods for sterilization because other methods, such as filtration, are not suitable for a suspension formulation. […] The ASDs were analyzed by XRPD and HPLC to determine if the Gamma irradiation changed the ivermectin polymorphic form and degradation respectively. […]
# [2] = HPLC assay of ivermectin before and after Gamma irradiation; type: physicochemical
# Source text: The inventors have also determined that use of the polymer in the amorphous solid dispersion of ivermectin protects the ivermectin from degradation that occurs during Gamma irradiation, heat sterilization or e-beam sterilization. Ophthalmic formulations must be sterilized and Gamma irradiation, heat sterilization or e-beam sterilization are suitable methods for sterilization because other methods, such as filtration, are not suitable for a suspension formulation. The amorphous solid dispersions for Examples 1-3 were tested to determine the extent that the polymer protects the ivermectin during Gamma irradiation. For preliminary tests, the amorphous ivermectin solid dispersions were sterilized by Gamma irradiation at 25 kGy for 22 hours in a Precisa 22 equipment. The ASDs were analyzed by XRPD and HPLC to determine if the Gamma irradiation changed the ivermectin polymorphic form and degradation respectively.
# The assay of the ivermectin on the amorphous solid dispersion was performed before, 1 week and 1 month after the application of Gamma irradiation. Preliminary trials of sterilization by gamma irradiation were successfully completed in the solid material of ivermectin alone and ASDs.
# (§2) Table 4 provides a summary of the characterizations (HPLC, XRPD and particle size) of ivermectin and of the amorphous solid dispersion of Example 1 (PVP-VA 64), Example 2 (PVP K-30) and Example 3 (HPMC E4M) prior to irradiation and after irradiation. Preliminary trials of sterilization by gamma irradiation were successfully completed in the solid material of ivermectin alone and ASDs. The amorphous form of the ASDs was not affected by gamma irradiation.
# [3] = Particle size D90 by laser diffraction before and after Gamma irradiation; type: physicochemical
# Description: as §1, §2
# demodex = settings: oral ivermectin, 19 subjects, cited from earlier work
# [4] = system: TNF-α, IL-1, and IL-6 (lipopolysaccharide (LPS)-induced cytokines); settings: through NF-κB; cited from earlier work
# [5] = Visual solubility in artificial sebum; type: physicochemical; settings: 24 h of mixing with a magnetic stirrer at room temperature, same amount of ivermectin
# Description: Some polymers have a capacity to improve the solubility of the ivermectin in the local region of application.
# The sebum with the amorphous ivermectin dispersions remains clear (solubilized) after 24 h of mixing with a magnetic stirrer at room temperature, and without polymers the sebum continued opaque (ivermectin in suspension—not solubilized) after the addiction of the both forms of ivermectin (crystalline or amorphous).
Molecule,XRPD After irradiation (T = 1 month) ([1]; 1 month after Gamma irradiation),XRPD After irradiation (T = 1 week) ([1]; 1 week after Gamma irradiation),XRPD Before irradiation ([1]; before irradiation),"% API (After: 1 month) ([2]; HPLC, 1 month after Gamma irradiation at 25 kGy for 22 hours) [%]","% API (After: 1 week) ([2]; HPLC, 1 week after Gamma irradiation at 25 kGy for 22 hours) [%]","% API (Before) ([2]; HPLC, before Gamma irradiation) [%]","HPLC (Assay IVM) After irradiation (T = 1 month) ([2]; Table 4, 1 month after Gamma irradiation) [%]","HPLC (Assay IVM) After irradiation (T = 1 week) ([2]; Table 4, 1 week after Gamma irradiation) [%]","HPLC (Assay IVM) Before irradiation ([2]; Table 4, before irradiation) [%]",% API degraded ([2]; before vs 1 month after Gamma irradiation) [%],D90 After irradiation (T = 1 week) ([3]; 1 week after Gamma irradiation) [μm],"D90 After irradiation (2 M) ([3]; after Gamma irradiation, cells marked (2 M) in the T = 1 month column)",D90 Before irradiation ([3]; before irradiation) [μm],Eradication of the demodex (demodex; by month 3 of treatment),Improvement in signs of ocular inflammation (demodex),Symptomatic improvement (demodex),"Change in TNF-α, IL-1, and IL-6 [4]",Solubility (visual inspection) [5]
"CC[C@H](C)[C@H]1O[C@]2(CC[C@@H]1C)C[C@@H]1C[C@@H](C/C=C(\C)[C@@H](O[C@H]3C[C@H](OC)[C@@H](O[C@H]4C[C@H](OC)[C@@H](O)[C@H](C)O4)[C@H](C)O3)[C@@H](C)/C=C/C=C3\CO[C@@H]4[C@H](O)C(C)=C[C@@H](C(=O)O1)[C@]34O)O2 [IVM, ivermectin]",Amorphous,Amorphous,Amorphous,84.3,86.9,95.2,84.26,86.9,95.2,10.9,2.53,2.41 (2 M) μm,2.66,All subjects had eradication of the demodex,all subjects had an improvement,All but two subjects improved symptomatically,decrease,
ivermectin [Crystalline ivermectin],,,,,,,,,,,,,,,,,,opaque
